Assays:
Breast cancer cell lines = experiment: NCI 60 five-dose screen, breast panel; type: cell-based, human; details: 48 h
Procedure: National Cancer Institute Cancer Cell Line (NCI 60) Screen of DefNEtTrp. Details of the methodology for NCI 60 cell line screening are described at http://dtp.nci.nih.gov/branches/btb/ivclsp.html. The cells, grown in supplemented RPMI-1640 medium, are seeded in 96 well plates at an appropriate density and incubated for 24 h. The test compounds are dissolved in DMSO and incubated with cells at a single dose of 10.0 μM for 48 h. The assay is terminated by addition of cold trichloroacetic acid, and the cells are fixed and stained with sulforhodamine B. Bound stain is solubilized, and the absorbance is read on an automated plate reader. […] Using the seven absorbance measurements [time zero, […], control growth, (C), and test growth in the presence of drug at the five concentration levels (Tf)], the percentage growth was calculated at each of the drug concentrations levels as: [(Tf−Ti)/(C−Ti)]×100 for concentrations for which Tf≥Ti and [(Tf−Ti)/Ti]×100 for concentrations for which Tf<Ti. Three-dose response parameters (GI50, TGI, and LC50) were calculated for each of the experimental agents in five dose assay. […] The total growth inhibition (TGI) was calculated from Tf=Ti, which was the drug concentration resulting in total growth inhibition and signified the cytostatic effect. […]

[1] = tested on: Jurkat Leukemia cell line; experiment: Jurkat cell viability (MTT assay); type: cell-based; details: 72 h
Procedure: Jurkat cell culturing and cell viability studies. Jurkat cells are nonadherent cells, and they were cultured in an RPMI-1640 media (supplemented with 10% FBS (v/v) and 1% antibiotic solution (v/v) of penicillin/streptomycin) in non-tissue-culture treated 25 mL flasks according to the known protocol provided by the supplier ATCC. The cell passaging was done at 70% confluency by taking 3 mL of cells and diluting to 25 mL of fresh media. The cells were incubated at 37° C. in 5% CO2 atmosphere.
Jurkat cytotoxicity of DefNEtTrp (6), Def (5), NEtTrp (4), Trp, and 1:1 combinations of 5 with 4 and 5 with Trp was determined by the colorimetric 3-(4,5-dimethylthiazol-2-yl)-2,5-diphenyltetrazolium bromide (MTT) assay. Incubation conditions were the same in all the steps. Cells in 80-95% confluence (grown in standard circular tissue culture dishes, BD Falcon) were separately seeded into 96-well plates using phenol red free RPMI-1640 media (containing 10% FBS and 1% streptomycin/penicillin) in a volume of 50 μL at a concentration of 5.0×10^5 cells/mL. Following this procedure, the Jurkat cells were treated immediately. Stock solution of the compounds were first prepared in DMF at 5 mM and stored at 4° C. for up to 30 days. The stock solution was diluted to specific concentrations using 1×PBS (0.2-20 μM) while DMF was maintained at 1% (v/v). 50 μL of diluted solutions were added in all cell containing wells with at least six replicates per concentration (n=6). The final percentage (v/v) of DMF was 0.5%. The cells were also co-treated with 5 with 4 and 5 with Trp in a 1:1 mole equivalent ratio over the same concentration range but as a combined concentration of both compounds. Control wells in the plates consisted of one lane of cells treated with media alone including 0.5% DMF (v/v) as the measure of 100% viable cell growth in the media. Another control lane consisted of no cells with media including 0.5% DMF (v/v) as a measure of the background with no viable cells. The plates were incubated for 72 h. At 4 h before completion of the incubation time, 25 μL of MTT solution (sterile filtered 5 mg/mL solution, dissolved in 1×PBS buffer) was added to each well. During addition of the MTT solution, the plates were protected from light. After completion a 50 μL portion of 4% (w/v) SDS solution (sterile filtered, dissolved in Tris buffer 1M, pH=10) was added to each well and incubated to solubilize formazan crystals after MTT cell labeling. The absorbance of each well was measured at 570 nm (absorbance of the formazan product at pH >10.0) and 800 nm (as a background correction) using a Tecan plate reader. The absorbance of all wells was compared to the absorbance of the untreated cells with the MTT set as the 100% viable cell standard and the absorbance of the no cell control set as the 0% viable cell standard. Nonlinear regression in GraphPad Prism 8 was utilized to fit the growth curve over the various drug concentrations to determine the half-maximal inhibitory concentration (IC50). All cell viability experiments, including non-Jurkat cells, were repeated at least once for biological duplicates. To confirm cell death at the higher concentration dosages of the compounds and combinations, dead cells were blue stained with trypan blue and visually inspected under the microscope.

[2] = tested on: MRC-5 noncancer lung cell line; experiment: MRC-5 cell viability (MTT assay); type: cell-based, human; details: concentration range examined, maximum 100 μM; 72 h
Procedure: MRC-5 cell viability studies. A thawed stock of MRC-5 cells was washed with 1×PBS and resuspended in phenol red DMEM media (supplemented with 10% FBS and 1% penicillin-streptomycin) and then seeded in a 100 mm×20 mm (complete, O.D.×H) petri dish and grown in a 5% (v/v) CO2 humidified atmosphere at 37° C. At least three passages were performed to ensure the integrity of the cells. After this point, cells were collected, thoroughly washed with 1×PBS, and then resuspended in phenol red-free DMEM (supplemented with 10% FBS, 1% penicillin-streptomycin, and 2.4 mM L-glutamine) at a 2.0×10^5 cells/mL concentration. A volume of 50 μL of cells was seeded into 96-well plates. Cells were incubated for 24 h. Stock solutions of DefNEtTrp were prepared fresh in DMF at concentrations of 20,000, 10,000, 5,000, 2,000, 1000, 200, 80, and 40 μM. The solutions were diluted 100-fold in 1×PBS to obtain a second set of stock solutions with 1% DMF(v/v). The MRC-5 cells were treated with 50 μL of DefNEtTrp compound solution from the second set of stock solutions to obtain final concentrations of 100, 50, 25, 10, 5, 1, 0.4, and 0.2 μM with 0.5% DMF (v/v). Control wells were the same type of controls as in the Jurkat cell work. Cells were incubated for 68 h and the MTT assay was performed exactly as described for the Jurkat cells.

## Nc1cccnc1/C=N/NC(=S)NCCNC(=O)c1ccc(-n2nc(-c3ccccc3O)nc2-c2ccccc2O)cc1 [DefNEtTrp, deferasirox nitrogen ethyl triapine]
Breast cancer cell lines; cell lines in which TGI was observed
  TGI (calculated average): 4840 nM
Breast cancer cell lines; Homo sapiens, read-out: GI50 (calculated average)
  GI50: 450 nM
[1]; Homo sapiens, Jurkat cell line, MTT
  IC50: 770 ± 60 nM
[1]; Jurkat
  cytotoxic effect compared with Def, NEtTrp and Trp in single drug and combination drug treatments: superior cytotoxic effect
[2]
  antiproliferative behavior against MRC-5: no antiproliferative behavior

— US20260055081A1, “Metal Chelator Compounds, Coordination Complexes, and Methods of Preparation and Use Thereof” (University of Puerto Rico, priority 2022, published 2026)
